# Like-named read-outs stand apart in the source and are kept apart here.
# Legend:
# Assay type in all cases: cell-based
# [1] = system: murine melanoma cells B16-F1; experiment: Cell viability, tetrazolium reduction assay
# Procedure: (§1) All test compounds were initially dissolved in 100% DMSO at a concentration of 400 mM. Then, 6 μL of 400 mM test compounds were added to 1.2 mL of the cell growth media giving a final concentration of 2 mM for the test compound and concentration of 0.5% for DMSO. The compounds were centrifuged for 1 h at 20,000×g. Supernatants (1 mL) were collected and filtered through sterile 0.2 μm filters. The compounds were serially diluted in two-fold increments in the sterile cell growth media supplemented with 0.5% DMSO, thus keeping the concentration of DMSO constant for all samples. These serially diluted compounds were subsequently used as two-fold concentrated stock solutions in the melanin production and cell viability assays. Equal volumes of 2× compounds were mixed with media containing 2 nM α-MSH to give a final concentration of 1 nM α-MSH, 0.5% DMSO, and 1× concentration of test compounds.
# Viability of cells was measured using standard tetrazolium reduction assay based on redox potential of live cells. Cells were seeded in a clear-bottom 96-well plate in RPMI 1640 media with Glutamax (Fisher Scientific, cat #61870036) at a density of 5,000 cells/well. Cells were treated with test compounds dissolved in 100 μL RPMI 1640 media and incubated for 48 hours at 37° C. in a humidified atmosphere of 95% air and 5% CO2.
# After incubation, 20 μL of Aqueous One Solution were added to each well and the plate was returned to the incubator for 30 minutes. Conversion of tetrazolium was monitored by measuring absorbance of cell wells at 492 nm using a TECAN Genios plate reader.
# (§2) More than 90% percent of the melanin produced by cultured melanoma cells is found in extra-cellular media. Therefore, at the end of the experiment melanin-containing media was collected and relative amounts of melanin were determined by absorption at 492 nm. Viability of cells was determined by a commonly used colorimetric procedure that is based on conversion of the tetrazolium compounds to colored formazan products (using Promega's CellTiter96 AqueousOne assay). Dehydrogenase enzymes in metabolically active cells accomplish this conversion, and the amount of formazan product is directly proportional to the number of living cells in culture. Mean (n=2) absorption of wells containing no cells was subtracted as blanks. The results were computed as percent of wells that contained the cells but no test compounds.
# [2] = system: murine melanoma cells B16-F1; experiment: Melanin production by murine melanoma cells B16-F1; conditions: Mus musculus, B16-F1, 1 nM α-MSH, 48 hours
# Procedure: Selected compounds were then tested for the ability to suppress melanin production by the murine melanoma cells B16-F1 as detailed below.
# Murine melanoma cells B16-F1 were purchased from the ATCC (Cat #CRL-6323). Cell Titer96 AqueousOne Solution was purchased from Promega (Cat #G3582). 0.2 μm pore size, low protein binding filters were purchased from PALL Life Sciences. (Cat #PN4454).
# Alpha-MSH was purchased from the Sigma Aldrich (Cat #M4135-1MG). All tissue culture reagents were purchased from VWR (phenol-red-free DMEM, cat #12001-630, L-glutamine, cat #12001-698) and Fisher Scientific (Trypsin-EDTA, cat #25-200-056).
# The B16-F1 cells were maintained in cell growth media (DMEM/High Glucose supplemented with glutamine, 10% fetal bovine serum, 50 units/ml penicillin, and 50 units/mL of streptomycin) at 37° C. in a humidified atmosphere of 95% air and 5% CO2.
# as §1
# B16-F1 cells were seeded into the wells of clear-bottom 24-well plates at 50,000 cells per well, in 0.5 mL of cell growth media. On the following day, 0.5 mL of freshly prepared test compounds containing α-MSH were added to the wells. The cells were maintained at 37° C. in a humidified atmosphere of 95% air and 5% CO2 for 48 hours. At the end of the incubation period, melanin-containing conditioned media was removed from the cells and transferred to another plate. To measure melanin content the light absorbance of conditioned media was taken at 492 nm using a TECAN Genios plate reader.
# as §2
# [3] = system: Propionibacterium acnes (ATCC11827); experiment: P-acne MIC/MBC test; conditions: Cutibacterium acnes; for MIC: ATCC11827, 24 h, lowest level that inhibits growth, turbidity, 1 day, read-out: MIC; for MBC: ATCC11827, lowest concentration required to kill the bacterium, read-out: MBC
# Procedure: The anti-microbial activity of the tested compounds were evaluated using published methods (Modugno e. al. (1994) Antimicrobial agents and Chemotherapy 38: 2362-2368; […] et. al. (1973) Antimicrobial agents and Chemotherapy 3: 40-48. Propionibacterium acnes (ATCC11827) was cultured for 20 hours at 37° C. in Reinforced Clostridal medium. The test article and positive control were dissolved in 1% DMSO with an incubation volume of 1 mL. The time of assessment was 1 day. Measurement of turbidity was used as the method of quantification. The compounds were tested in duplicate at concentrations of 250 ug/mL, 125 ug/mL, 62 ug/mL, 31 ug/mL, 16 ug/mL, 8 ug/mL, 4 ug/mL, 2 ug/mL relative to positive control ampicillin at 0.1 ug/mL.
# [4] = system: reconstructed skin (keratinocytes and melanocytes); experiment: Reconstructed human skin model (Melanoderm); conditions: for toxicity on reconstructed skin: at 0.05%
# Procedure: The skin whitening effects of test compounds were studied using a reconstructed skin model, Melanoderm™ provided by MatTek Corp. (Ashland, Mass.) according to the manufacturer's specifications. Briefly, normal human epidermal keratinocytes and normal human melanocytes derived from dark skin donors were co-cultured on a surface of collagen-coated membrane to form multi-layered, highly differentiated skin tissue (MEL-300-B). The tissues were maintained in the CO2, incubator at 37° C. The apical surfaces of the reconstructed skin (9 mm in diameter) were exposed to air whereas the bottom surfaces remained in contact with 5 mL of maintenance medium, containing skin differentiating factors (EPI-100-NNM-113). Test compounds were formulated in 80% propylene glycol as follows: 10 mg of each test compound was dissolved in DMSO and diluted with 80% propylene glycol (1,2-propanediol, Sigma-Aldrich) to stock concentrations. The compounds were then sterilized by passing through 0.2 um filter and diluted in sterile water/propylene glycol to final test concentrations in 0.5% DMSO, 80% propylene glycol. In addition, the following controls were used: 80% propylene glycol with 0.5% DMSO, and 1% kojic acid in 80% propylene glycol.
# ‘Test compounds were applied to the apical surface of the tissues as follows: 25 μl of each test compound, 25 μl of 80% propylene glycol (vehicle control), and 25 μl of 1% kojic acid (positive control). The samples were reapplied every other day for 14 days. All the samples were tested in duplicate. At the end of the experiment microscopic images were taken.
# The potential skin-whitening properties of test compounds were explored in a reconstructed skin model. The model consists of normal, human-derived epidermal keratinocytes and melanocytes, which have been co-cultured to form a multilayered, highly differentiated human epidermis. In this study the melanocytes were obtained from a highly pigmented donor.
# Different concentrations of test compounds, 80% propylene glycol (the vehicle control), or 1% kojic acid (positive control) were repeatedly applied topically on the surface of the reconstructed skin for 15 days. […] Photographs of skin specimen taken after 15 days of the experiment show significant dose-dependent whitening effects on melanocytes, which appear on photographs as dark dendritic cells.
# [5] = Tables 1-3, read-out: MELANIN PRODUCTION
# [6] = FIGS. 2-8, read-out: IC50, inhibition in the production of melanin
SMILES,"CELL VIABILITY ([1]; mouse, 48 h) [µM]","IC50 [2, 5] [µM]",MIC [3] [µg/mL],MBC [3] [µg/mL],"LD50, cell viability ([1]; mouse, 48 h) [µM]","IC50 [2, 6] [µM]",toxicity on reconstructed skin [4],"CELL VIABILITY ([1]; 48 hours, Tables 1-3) [µM]","whitening effects on melanocytes ([4]; topical, photographs after 14 days)"
"CC(C)=CCCC(C)=Cc1cccc(O)c1 (mixture of isomers) [Compound 2, (E/Z)-3-(2,6-dimethylhepta-1,5-dienyl)phenol]",66,82,,,,,,,
"CC(C)=CCC/C(C)=C/c1ccc(O)cc1O [Compound 3, (E/Z)-4-(2,6-dimethylhepta-1,5-dienyl)benzene-1,3-diol]",172,164,< 3.9,< 3.9,,,,,
"CC(C)=CCCC(C)/C=C/c1ccc2cc(O)ccc2c1 (stereo not drawn) [Compound 8, (E)-6-(3,7-Dimethylocta-1,6-dienyl) naphthalene-2-ol]",68,22,< 3.9,< 3.9,68,22,some toxicity,,
"CC(C)=CCCC(C)/C=C/c1cccnc1 (stereo not drawn) [Compound 12, (E)-3-(3,7-dimethylocta-1,6-dienyl) pyridine]",,74,< 3.9,< 3.9,385,74,some toxicity,385,significant whitening effects
"CC(C)=CCCC(C)/C=C/c1ccccn1 (stereo not drawn) [Compound 13, (E)-2-(3,7-dimethylocta-1,6-dienyl) pyridine]",650,149,,,,,,,
"COc1ccc(/C=C/C(C)CCC=C(C)C)cn1 (stereo not drawn) [Compound 14, (E)-5-(3,7-dimethylocta-1,6-dienyl)-2-methoxypyridine]",369,147,,,,,,,
"CC(C)=CCCC(C)C/C=C/c1cc(O)cc(O)c1 (stereo not drawn) [Compound 16, (E)-5-(4,8-dimethylnona-1,7-dienyl) benzene-1,3-diol]",172,164,< 3.9,< 3.9,,,,,
"CC(C)=CCCC(C)C/C=C/c1cc(OCC(=O)O)cc(OCC(=O)O)c1 (stereo not drawn) [Compound 17, (E)-2,2′-(5-(4,8-dimethylnona-1,7-dienyl)-1,3-phenylene)bis(oxy)diacetic acid]",127,72,< 3.9,< 3.9,,,,,
